Assay results reported in ChEMBL document CHEMBL3991601, “The target landscape of clinical kinase drugs” (Science, 2017).
Activity calls are given as the source filed them. Cut-off read from the data, not from the text of the source, for most assays here: actives have a measured Kd and inactives only a lower limit.

Experiments:
[1] = molecular target: T1, ATP-dependent RNA helicase DDX1 (Homo sapiens, UniProt Q92499)
T1 sequence (Q92499 whole entry): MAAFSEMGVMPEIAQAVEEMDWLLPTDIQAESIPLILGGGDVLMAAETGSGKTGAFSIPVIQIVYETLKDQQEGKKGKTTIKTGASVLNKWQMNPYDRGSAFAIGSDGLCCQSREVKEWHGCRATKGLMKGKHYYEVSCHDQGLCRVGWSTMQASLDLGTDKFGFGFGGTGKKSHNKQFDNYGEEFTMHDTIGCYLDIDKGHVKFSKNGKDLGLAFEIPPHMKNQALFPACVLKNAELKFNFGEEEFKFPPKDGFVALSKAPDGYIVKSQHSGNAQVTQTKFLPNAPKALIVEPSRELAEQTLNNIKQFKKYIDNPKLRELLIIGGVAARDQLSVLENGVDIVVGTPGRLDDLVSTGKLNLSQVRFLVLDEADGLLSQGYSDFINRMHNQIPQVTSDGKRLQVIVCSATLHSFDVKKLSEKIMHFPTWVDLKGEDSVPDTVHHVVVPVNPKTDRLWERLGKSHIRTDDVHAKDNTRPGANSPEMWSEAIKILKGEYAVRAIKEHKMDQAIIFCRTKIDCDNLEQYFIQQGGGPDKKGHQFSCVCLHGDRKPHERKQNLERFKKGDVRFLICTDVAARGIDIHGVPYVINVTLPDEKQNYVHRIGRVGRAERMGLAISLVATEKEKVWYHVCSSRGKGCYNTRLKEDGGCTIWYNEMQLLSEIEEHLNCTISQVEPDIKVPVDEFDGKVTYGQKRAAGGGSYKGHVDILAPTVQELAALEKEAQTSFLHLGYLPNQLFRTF

[2] = molecular target: Eukaryotic translation initiation factor 2-alpha kinase 1 (Homo sapiens, UniProt Q9BQI3)
Chain of Eukaryotic translation initiation factor 2-alpha kinase 1 (Q9BQI3 whole entry): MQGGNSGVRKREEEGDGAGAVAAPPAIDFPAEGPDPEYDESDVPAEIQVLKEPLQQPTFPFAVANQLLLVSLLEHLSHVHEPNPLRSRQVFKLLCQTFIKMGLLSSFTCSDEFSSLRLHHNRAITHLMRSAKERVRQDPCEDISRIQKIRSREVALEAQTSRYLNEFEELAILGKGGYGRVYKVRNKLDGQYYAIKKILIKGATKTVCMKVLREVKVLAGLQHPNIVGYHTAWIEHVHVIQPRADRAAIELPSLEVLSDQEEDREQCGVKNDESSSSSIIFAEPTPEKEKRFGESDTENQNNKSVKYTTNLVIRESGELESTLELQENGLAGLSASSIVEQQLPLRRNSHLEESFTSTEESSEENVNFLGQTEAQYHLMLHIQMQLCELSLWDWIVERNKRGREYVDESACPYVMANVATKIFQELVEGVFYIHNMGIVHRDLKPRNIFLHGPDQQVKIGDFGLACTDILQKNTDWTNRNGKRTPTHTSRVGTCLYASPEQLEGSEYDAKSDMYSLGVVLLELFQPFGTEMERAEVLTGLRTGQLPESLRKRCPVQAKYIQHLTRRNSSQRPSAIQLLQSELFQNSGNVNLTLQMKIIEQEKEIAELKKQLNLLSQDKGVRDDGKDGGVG

[3] = molecular target: T2, Ephrin type-B receptor 6 (Homo sapiens, UniProt O15197)
T2 sequence (O15197 whole entry): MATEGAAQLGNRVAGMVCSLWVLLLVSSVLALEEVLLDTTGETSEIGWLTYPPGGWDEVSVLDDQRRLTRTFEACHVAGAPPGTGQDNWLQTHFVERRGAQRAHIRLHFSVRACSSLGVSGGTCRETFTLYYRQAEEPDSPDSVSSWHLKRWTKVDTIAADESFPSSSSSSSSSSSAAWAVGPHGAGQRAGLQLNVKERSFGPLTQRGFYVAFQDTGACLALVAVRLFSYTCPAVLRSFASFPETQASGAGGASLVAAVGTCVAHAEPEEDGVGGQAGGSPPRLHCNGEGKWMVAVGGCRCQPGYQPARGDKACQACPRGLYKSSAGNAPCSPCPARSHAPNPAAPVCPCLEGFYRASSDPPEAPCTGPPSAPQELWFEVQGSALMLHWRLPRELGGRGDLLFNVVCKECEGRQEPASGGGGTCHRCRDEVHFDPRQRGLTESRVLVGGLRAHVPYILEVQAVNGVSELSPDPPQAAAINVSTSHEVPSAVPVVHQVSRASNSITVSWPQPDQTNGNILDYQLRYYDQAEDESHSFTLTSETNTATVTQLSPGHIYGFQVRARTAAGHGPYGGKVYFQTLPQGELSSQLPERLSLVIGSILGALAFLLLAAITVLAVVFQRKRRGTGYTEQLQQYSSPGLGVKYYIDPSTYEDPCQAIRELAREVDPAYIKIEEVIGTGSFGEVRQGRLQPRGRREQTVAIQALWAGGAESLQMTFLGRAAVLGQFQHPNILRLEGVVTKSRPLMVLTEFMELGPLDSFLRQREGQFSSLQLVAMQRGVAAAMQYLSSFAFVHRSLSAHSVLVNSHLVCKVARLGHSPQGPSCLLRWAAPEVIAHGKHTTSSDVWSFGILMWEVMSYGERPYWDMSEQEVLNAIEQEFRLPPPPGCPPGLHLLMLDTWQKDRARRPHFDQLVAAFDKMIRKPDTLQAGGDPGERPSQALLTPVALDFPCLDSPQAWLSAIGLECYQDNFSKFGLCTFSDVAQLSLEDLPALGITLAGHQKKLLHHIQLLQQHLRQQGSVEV

[4] = molecular target: Obg-like ATPase 1 (Homo sapiens, UniProt Q9NTK5)
Chain of Obg-like ATPase 1 (Q9NTK5 whole entry, looked up): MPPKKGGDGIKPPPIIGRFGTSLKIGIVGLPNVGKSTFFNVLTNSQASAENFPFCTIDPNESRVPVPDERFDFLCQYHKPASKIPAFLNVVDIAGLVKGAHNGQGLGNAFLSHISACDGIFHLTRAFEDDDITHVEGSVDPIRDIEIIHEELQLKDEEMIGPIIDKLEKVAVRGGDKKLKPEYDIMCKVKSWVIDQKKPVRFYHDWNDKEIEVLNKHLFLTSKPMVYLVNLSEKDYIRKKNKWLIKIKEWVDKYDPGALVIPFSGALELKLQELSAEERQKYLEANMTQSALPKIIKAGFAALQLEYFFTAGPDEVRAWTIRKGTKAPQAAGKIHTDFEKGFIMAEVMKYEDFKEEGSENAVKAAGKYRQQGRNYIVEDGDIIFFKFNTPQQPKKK

[5] = molecular target: T3, Serine/threonine-protein kinase D2 (Homo sapiens, UniProt Q9BZL6)
T3 sequence (Q9BZL6 whole entry): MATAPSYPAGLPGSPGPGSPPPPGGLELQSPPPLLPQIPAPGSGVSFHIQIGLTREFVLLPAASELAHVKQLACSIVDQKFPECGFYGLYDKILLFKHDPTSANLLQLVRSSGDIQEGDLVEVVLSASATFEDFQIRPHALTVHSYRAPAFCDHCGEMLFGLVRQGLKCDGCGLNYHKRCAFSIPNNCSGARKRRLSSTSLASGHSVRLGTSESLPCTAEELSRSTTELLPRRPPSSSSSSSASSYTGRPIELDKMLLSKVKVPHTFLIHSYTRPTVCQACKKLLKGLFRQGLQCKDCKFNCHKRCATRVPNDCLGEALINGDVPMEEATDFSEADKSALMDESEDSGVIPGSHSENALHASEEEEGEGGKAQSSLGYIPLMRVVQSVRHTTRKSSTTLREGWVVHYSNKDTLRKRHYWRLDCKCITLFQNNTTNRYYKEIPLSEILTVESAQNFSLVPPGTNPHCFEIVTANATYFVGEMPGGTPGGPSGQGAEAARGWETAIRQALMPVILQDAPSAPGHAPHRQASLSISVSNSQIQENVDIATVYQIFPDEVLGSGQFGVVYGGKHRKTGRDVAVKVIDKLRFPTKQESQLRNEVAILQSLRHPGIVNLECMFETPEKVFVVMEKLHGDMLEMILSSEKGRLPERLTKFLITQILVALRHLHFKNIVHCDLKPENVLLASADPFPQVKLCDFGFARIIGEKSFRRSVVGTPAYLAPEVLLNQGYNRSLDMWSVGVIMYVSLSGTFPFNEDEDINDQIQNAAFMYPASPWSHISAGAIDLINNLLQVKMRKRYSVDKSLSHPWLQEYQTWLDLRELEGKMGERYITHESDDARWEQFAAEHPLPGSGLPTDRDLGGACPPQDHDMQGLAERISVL

[6] = molecular target: T4, EKC/KEOPS complex subunit TP53RK (Homo sapiens, UniProt Q96S44)
T4 sequence (Q96S44 whole entry): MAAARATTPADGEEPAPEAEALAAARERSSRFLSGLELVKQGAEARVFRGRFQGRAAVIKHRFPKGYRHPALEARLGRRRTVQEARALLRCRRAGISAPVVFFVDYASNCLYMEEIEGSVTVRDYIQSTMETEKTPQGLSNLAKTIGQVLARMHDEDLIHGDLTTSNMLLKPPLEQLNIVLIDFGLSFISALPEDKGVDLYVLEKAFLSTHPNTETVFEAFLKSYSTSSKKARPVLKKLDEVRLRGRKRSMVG
Note: in the data inactive means no Kd found up to 30 µM.

Row | Kd [1] | Kd [2] | Kd [3] | Kd [4] | Kd [5] | Kd [6] | SMILES
1 | > 30 µM (inactive) | > 30 µM (inactive) | > 30 µM (inactive) | > 30 µM (inactive) | > 30 µM (inactive) | > 30 µM (inactive) | CO[C@H]1C[C@@H]2CC[C@@H](C)[C@@](O)(O2)C(=O)C(=O)N2CCCC[C@H]2C(=O)O[C@H]([C@H](C)C[C@@H]2CC[C@@H](OC(=O)C(C)(CO)CO)[C@H](OC)C2)CC(=O)[C@H](C)/C=C(\C)[C@@H](O)[C@@H](OC)C(=O)[C@H](C)C[C@H](C)/C=C/C=C/C=C/1C [TEMSIROLIMUS]
2 | > 30 µM (inactive) | > 30 µM (inactive) | 0.259 µM | > 30 µM (inactive) | > 30 µM (inactive) | > 30 µM (inactive) | COc1cc2c(Nc3ccc(Cl)c(Cl)c3F)ncnc2cc1OC[C@@H]1C[C@@H]2CN(C)C[C@@H]2C1 [TESEVATINIB]
3 | > 30 µM (inactive) | > 30 µM (inactive) | > 30 µM (inactive) | > 30 µM (inactive) | > 30 µM (inactive) | > 30 µM (inactive) | O=C(Cc1ccc(-c2ccc(OCCN3CCOCC3)cc2)cn1)NCc1ccccc1 [TIRBANIBULIN]
4 | > 30 µM (inactive) | > 30 µM (inactive) | > 30 µM (inactive) | > 30 µM (inactive) | > 30 µM (inactive) | > 30 µM (inactive) | O=C1NC(=O)[C@@H](c2cn3c4c(cccc24)CCC3)[C@@H]1c1c[nH]c2ccccc12 [TIVANTINIB]
5 | > 30 µM (inactive) | > 30 µM (inactive) | 3.34 µM (active) | > 30 µM (inactive) | > 30 µM (inactive) | > 30 µM (inactive) | C[C@@H](NC(=O)c1ncnc(N)c1Cl)c1ncc(C(=O)Nc2cc(C(F)(F)F)c(Cl)cn2)s1 [TOVORAFENIB]
6 | > 30 µM (inactive) | > 30 µM (inactive) | > 30 µM (inactive) | > 30 µM (inactive) | 0.572 µM (active) | > 30 µM (inactive) | C[C@@H](N)c1ccc(C(=O)Nc2ccnc3[nH]ccc23)cc1 [Y-39983]

Row | SMILES | Kd [1] | Kd [2] | Kd [3] | Kd [4] | Kd [5] | Kd [6]
7 | Cc1cc(Nc2ncnc3ccc(NC4=NC(C)(C)CO4)cc23)ccc1Oc1ccn2ncnc2c1 [TUCATINIB] | > 30 µM (inactive) | > 30 µM (inactive) | > 30 µM (inactive) | > 30 µM (inactive) | > 30 µM (inactive) | > 30 µM (inactive)
